Our source for the IC50, AUC and Cmax values is patent publication US20090099160A1, “4-(4-(Imidazol-4-Yl) Pyrimidin-2-Ylamino) Benzamides as CDK Inhibitors” (priority 2004, published 2009).

A word on the IC50: it is the concentration at which inhibition is half-maximal. Usually AUC stands for the area under the concentration-time curve, a measure of exposure. In general, Cmax refers to the peak of the concentration-time curve.

The structures appear in SMILES notation.

Data set [1] concerns the target T1, CDK2/Cyclin E (Homo sapiens, UniProt P24941).
T1 construct: made in house; host or cells: Sf21 insect cells (baculovirus co-infection, pVL1393); the GST-Rb substrate was made in E. coli BL21 (DE3) pLysS
In words: CDK2/Cyclin E in vitro kinase assay (Scintillation Proximity Assay, GST-Rb substrate). The note with it: read-out: CDK2 inhibitory activity IC50. It counts as biochemical. Here is the method:
The compounds were tested in an in vitro kinase assay in 96 well format using Scintillation Proximity Assay (SPA—obtained from Amersham) for measuring incorporation of [γ-33-P]-Adenosine Triphosphate into a test substrate (GST-Retinoblastoma protein; GST-Rb). In each well was placed the compound to be tested (diluted in DMSO and water to correct concentrations) and in control wells either roscovitine as an inhibitor control or DMSO as a positive control. […]
The plates were sealed with Topseal-S plate sealers, left for two hours then spun at 2500 rpm, 1124 xg., for 5 minutes. The plates were read on a Topcount for 30 seconds per well. […]
E. coli paste was resuspended in 10 ml/g of NETN buffer (50 mM Tris pH 7.5, 120 mM NaCl, 1 mM EDTA, 0.5% v/v NP-40, 1 mM PMSF, 1 μg/ml leupeptin, 1 ug/ml aprotinin and 1 ug/ml pepstatin) and sonicated for 2×45 seconds per 100 ml homogenate. […] The final product was analysed by Sodium Dodeca Sulfate (SDS) PAGE (Polyacrylamide gel) using 8-16% Tris-Glycine gels (Novex, San Diego, USA).
The open reading frames of CDK2 and Cyclin E were isolated by reverse transcriptase-PCR using HeLa cell and activated T cell mRNA as a template and cloned into the insect expression vector pVL1393 (obtained from Invitrogen 1995 catalogue number: V1392-20). […]
A general note: In a scintillation proximity assay essentially only radioactivity close to the scintillant gives light.

Data set [2] can be described thus: High Throughput Blood Level Assay - Rat. It counts as in vivo. The note with it: male, Alderley Park (AP), Wistar derived, Alpk..APfSD, plasma, oral cocktail dosing, normalised to a 1 mg/kg dose. The source says:
(§1) The level of oral exposure of a compound can be measured by the following assay. This assay gives a semi-quantitative measure of the concentration of the compound achieved in the blood at a number of time points. Data available include Cmax (highest concentration achieved), and the AUC (area under the plasma concentration/time curve) for the compound. This gives a high throughput measure of likelihood of obtaining blood levels for each compound following oral dosing and as the data are normalised for dose, it allows direct comparison of each compound.
A cocktail of 6 compounds is formulated in propylene glycol using a combination of vortex mixing, sonication and high speed shear mixing. This formulation consists of 5 test compounds (1 mg/ml) and a standard (0.5 mg/ml). The resulting formulation is a solution or a stable (≧several hours) suspension.
The formulation is dosed (2 ml/kg) to two male rats (170-250 gm) which have been fasted for ≦16 hours then pre-dosed with water (˜10 ml/kg). The dose for the test compounds is 2 mg/kg and for the standard it is 1 mg/kg. […]
Samples are analysed by LC/MS-MS and the concentration obtained is used to determine the Cmax μg/ml (maximum compound level detected), AUC0-6 hr μg/hr/ml (area under the curve) and tmax hr (time that the maximum compound levels have been measured) for a given compound to give an indication of exposure […]

A short description of data set [3]: High Throughput Blood Level Assay - Mice. It counts as in vivo. As to conditions: male, Alpk..APfCD-1, plasma, 2 mg/kg; AP mouse, oral cocktail dosing, normalised to 1 mg/kg.
Description: as §1
The above assay may be run using mice in place of rats, but with the following variations.
For a profile in mice 10 male mice are dosed at the same level as to rats but they are not fasted or predosed with water. Furthermore, samples from mice are all terminal, with 2 mice per time point.
The mice used in the above experiment were AP mice. The AP mouse was originally obtained from a commercial breeder Schoefields in 1956. The stock was rederived by fostering onto a CD-1 Charles Rivers (commercial supplier) outbred mouse and has remained a closed colony ever since. The nomenclature for these animals is Alpk..APfCD-1.

As for `CNC(=O)c1ccc(Nc2ncc(F)c(-c3cnc(C)n3C(C)C)n2)cc1C` [Example 28], the IC50 in data set [1] turned out to be 3 nM.

`Cc1ncc(-c2nc(Nc3ccc(C(=O)NC4CC4)c(F)c3)ncc2F)n1C(C)C` [Example 25]: in data set [2], the AUC was found to be 0.83 µM·h and the Cmax came to 400 nM. In data set [3], this molecule showed an exposure (AUC) of 1.5 µM·h and a maximum concentration (Cmax) of 680 nM.
